Patent US8022102B2, “Unsaturated tetracyclic tetrahydrofuran derivatives” (Janssen Pharmaceutica, NV, priority 2004, dated 2011)

biological target: T1, human cloned 5-HT2A receptor (Homo sapiens, UniProt P28223); test: In vitro binding affinity for 5-HT2A receptor (radioligand binding); conditions: h-5HT2A
T1 construct: expressed in transfected cells; host or cells: L929 cells
Procedure: During the incubation, the radioligands bind to the receptor. When equilibrium of binding is reached, the receptor bound radioactivity is separated from the non-bound radioactivity, and the receptor bound activity is counted. The interaction of the test compounds with the receptors is assessed in competition binding experiments. Various concentrations of the test compound are added to the incubation mixture containing the tissue preparation and the radioligand. Binding of the radioligand will be inhibited by the test compound in proportion to its binding affinity and its concentration. The affinities of the compounds for the 5-HT2 receptors were measured by means of radioligand binding studies conducted with: (a) human cloned 5-HT2A receptor, expressed in L929 cells using [^125I]R91150 as radioligand and (b) human cloned 5-HT2C receptor, expressed in CHO cells using [^3H]mesulergine as radioligand.

T1 sequence (P28223 whole entry): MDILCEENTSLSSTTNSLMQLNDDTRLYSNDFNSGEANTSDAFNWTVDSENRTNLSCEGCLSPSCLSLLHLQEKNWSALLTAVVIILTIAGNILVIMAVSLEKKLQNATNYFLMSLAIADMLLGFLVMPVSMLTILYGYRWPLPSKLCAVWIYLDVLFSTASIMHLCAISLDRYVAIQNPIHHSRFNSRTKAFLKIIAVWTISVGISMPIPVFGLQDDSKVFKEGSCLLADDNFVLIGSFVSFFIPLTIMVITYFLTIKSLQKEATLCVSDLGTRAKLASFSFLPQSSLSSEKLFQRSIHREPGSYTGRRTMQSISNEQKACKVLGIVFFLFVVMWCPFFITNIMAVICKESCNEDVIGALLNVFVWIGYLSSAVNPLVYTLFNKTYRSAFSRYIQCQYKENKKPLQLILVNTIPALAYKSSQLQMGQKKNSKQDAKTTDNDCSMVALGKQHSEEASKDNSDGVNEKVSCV

Structure (SMILES)	IC50 [nM]
CN(C/C=C/c1ccccc1)C[C@H]1CC2=C(O1)c1cc(F)ccc1Cc1ccccc12 [Compound 110]	12.6

same assay, conditions: h-5HT2A, human cloned 5-HT2A receptor, radioligand binding

Structure (SMILES)	IC50 [nM]
O=C(Oc1ccccc1)N1CCN(CC2CC3=C(O2)c2cc(F)ccc2Cc2ccccc23)CC1 (stereo not drawn) [Compound 65]	50.1
O=C(Oc1ccccc1)N1CCN(CC2CC3=C(O2)c2cc(F)ccc2Oc2ccccc23)CC1 (stereo not drawn) [Compound 66]	126
COc1ccc(OC(=O)N2CCN(CC3CC4=C(O3)c3cc(F)ccc3Cc3ccccc34)CC2)cc1 (stereo not drawn) [Compound 67]	20
COc1ccc(OC(=O)N2CCN(CC3CC4=C(O3)c3cc(F)ccc3Oc3ccccc34)CC2)cc1 (stereo not drawn) [Compound 68]	63.1

same assay, conditions: human cloned 5-HT2A receptor, radioligand binding; read-out: h-5HT2A (converted)

Structure (SMILES)	IC50 [nM]
O=S(=O)(c1ccccc1)N1CCN(CC2CC3=C(O2)c2cc(F)ccc2Cc2ccccc23)CC1 (stereo not drawn) [Compound 48]	398
Cc1ccc(S(=O)(=O)N2CCN(CC3CC4=C(O3)c3cc(F)ccc3Oc3ccccc34)CC2)cc1 (stereo not drawn) [Compound 50]	200
CC(C)OC(=O)N1CCN(CC2CC3=C(O2)c2cc(F)ccc2Cc2ccccc23)CC1 (stereo not drawn) [Compound 63]	251
O=C(OCc1ccccc1)N1CCN(CC2CC3=C(O2)c2cc(F)ccc2Cc2ccccc23)CC1 (stereo not drawn) [Compound 69]	501
O=C(OCc1ccccc1)N1CCN(CC2CC3=C(O2)c2cc(F)ccc2Oc2ccccc23)CC1 (stereo not drawn) [Compound 70]	1000
O=C(c1ccccc1)N1CCN(CC2CC3=C(O2)c2cc(F)ccc2Cc2ccccc23)CC1 (stereo not drawn) [Compound 71]	6.31
O=C(c1ccccc1)N1CCN(CC2CC3=C(O2)c2cc(F)ccc2Oc2ccccc23)CC1 (stereo not drawn) [Compound 72]	25.1
O=C(NCc1ccccc1)N1CCN(CC2CC3=C(O2)c2cc(F)ccc2Cc2ccccc23)CC1 (stereo not drawn) [Compound 87]	631
O=C(NCc1ccccc1)N1CCN(CC2CC3=C(O2)c2cc(F)ccc2Oc2ccccc23)CC1 (stereo not drawn) [Compound 88]	158
CCCn1c2c(c3ccccc31)C1=C(CC(CNC)O1)c1ccccc1S2 (stereo not drawn) [Compound 93]	25.1

biological target: T2, NET (Rattus norvegicus, UniProt Q9WTR4); test: In vitro determination of NET reuptake inhibition ([3H]Nixosetine binding, rat brain cortex); conditions: NET Reuptake Inhibition
T2 construct: Cortex from rat brain was collected and homogenised; from tissue; host or cells: rat brain cortex
T2 sequence (Q9WTR4 1-597): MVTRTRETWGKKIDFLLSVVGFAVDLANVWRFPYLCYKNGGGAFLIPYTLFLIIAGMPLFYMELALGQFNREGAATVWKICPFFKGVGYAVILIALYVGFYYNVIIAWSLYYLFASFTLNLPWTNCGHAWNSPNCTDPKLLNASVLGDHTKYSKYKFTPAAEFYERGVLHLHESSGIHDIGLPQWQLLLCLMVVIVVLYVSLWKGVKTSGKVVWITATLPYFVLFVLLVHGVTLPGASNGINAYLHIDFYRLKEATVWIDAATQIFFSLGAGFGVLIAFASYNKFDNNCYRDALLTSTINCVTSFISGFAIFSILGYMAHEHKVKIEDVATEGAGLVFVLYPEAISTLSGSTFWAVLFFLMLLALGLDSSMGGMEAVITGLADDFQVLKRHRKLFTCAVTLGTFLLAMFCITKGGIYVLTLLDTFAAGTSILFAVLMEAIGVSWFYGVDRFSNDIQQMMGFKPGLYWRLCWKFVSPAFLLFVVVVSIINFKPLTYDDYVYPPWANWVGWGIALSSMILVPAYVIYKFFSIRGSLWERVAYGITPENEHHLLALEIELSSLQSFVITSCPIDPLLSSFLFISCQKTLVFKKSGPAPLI
Procedure: Cortex from rat brain was collected and homogenised using an Ultra-Turrax T25 and a Dual homogeniser in ice-cold homogenising buffer containing Tris, NaCl and KCl (50 mM, 120 mM and 5 mM, respectively, pH 7.4) prior to dilution to an appropriate protein concentration optimised for specific and non-specific binding. […] Membrane-bound activity was detected by filtration through a Packard Filtermate harvester onto GF/B Unifilterplates, washed with ice-cold Tris-HCl buffer, containing NaCl and KCl (50 mM, 120 mM and 4 mM; pH 7.4; 6×0.5 ml). Filters were allowed to dry for 24 h before adding scintillation fluid. Scintillation fluid was allowed to saturate filters for 24 h before counting in a Topcount scintillation counter. Percentage specific bound and competition binding curves were calculated using S-Plus software (Insightful).

Structure (SMILES)	IC50 [nM]
CN(C/C=C/c1ccccc1)C[C@H]1CC2=C(O1)c1cc(F)ccc1Cc1ccccc12 [Compound 110]	1000

same assay, conditions: NET Reuptake Inhibition, rat brain cortex, [3H]Nixosetine

Structure (SMILES)	IC50 [nM]
O=C(Oc1ccccc1)N1CCN(CC2CC3=C(O2)c2cc(F)ccc2Cc2ccccc23)CC1 (stereo not drawn) [Compound 65]	3160
O=C(Oc1ccccc1)N1CCN(CC2CC3=C(O2)c2cc(F)ccc2Oc2ccccc23)CC1 (stereo not drawn) [Compound 66]	1260
COc1ccc(OC(=O)N2CCN(CC3CC4=C(O3)c3cc(F)ccc3Cc3ccccc34)CC2)cc1 (stereo not drawn) [Compound 67]	3160
COc1ccc(OC(=O)N2CCN(CC3CC4=C(O3)c3cc(F)ccc3Oc3ccccc34)CC2)cc1 (stereo not drawn) [Compound 68]	1580

same assay, conditions: rat brain cortex, [3H]Nixosetine; read-out: NET Reuptake Inhibition (converted)

Structure (SMILES)	IC50 [nM]
O=S(=O)(c1ccccc1)N1CCN(CC2CC3=C(O2)c2cc(F)ccc2Cc2ccccc23)CC1 (stereo not drawn) [Compound 48]	> 10000
Cc1ccc(S(=O)(=O)N2CCN(CC3CC4=C(O3)c3cc(F)ccc3Oc3ccccc34)CC2)cc1 (stereo not drawn) [Compound 50]	1580
CC(C)OC(=O)N1CCN(CC2CC3=C(O2)c2cc(F)ccc2Cc2ccccc23)CC1 (stereo not drawn) [Compound 63]	> 10000
O=C(OCc1ccccc1)N1CCN(CC2CC3=C(O2)c2cc(F)ccc2Cc2ccccc23)CC1 (stereo not drawn) [Compound 69]	7940
O=C(OCc1ccccc1)N1CCN(CC2CC3=C(O2)c2cc(F)ccc2Oc2ccccc23)CC1 (stereo not drawn) [Compound 70]	> 10000
O=C(c1ccccc1)N1CCN(CC2CC3=C(O2)c2cc(F)ccc2Cc2ccccc23)CC1 (stereo not drawn) [Compound 71]	5010
O=C(c1ccccc1)N1CCN(CC2CC3=C(O2)c2cc(F)ccc2Oc2ccccc23)CC1 (stereo not drawn) [Compound 72]	6310
O=C(NCc1ccccc1)N1CCN(CC2CC3=C(O2)c2cc(F)ccc2Cc2ccccc23)CC1 (stereo not drawn) [Compound 87]	7940
O=C(NCc1ccccc1)N1CCN(CC2CC3=C(O2)c2cc(F)ccc2Oc2ccccc23)CC1 (stereo not drawn) [Compound 88]	1580
CCCn1c2c(c3ccccc31)C1=C(CC(CNC)O1)c1ccccc1S2 (stereo not drawn) [Compound 93]	100

biological target: T3, human cloned 5-HT2C receptor (Homo sapiens, UniProt P28335); test: In vitro binding affinity for 5-HT2C receptor (radioligand binding); conditions: h-5HT2C
T3 construct: expressed in transfected cells; host or cells: CHO cells
T3 sequence (P28335 33-458): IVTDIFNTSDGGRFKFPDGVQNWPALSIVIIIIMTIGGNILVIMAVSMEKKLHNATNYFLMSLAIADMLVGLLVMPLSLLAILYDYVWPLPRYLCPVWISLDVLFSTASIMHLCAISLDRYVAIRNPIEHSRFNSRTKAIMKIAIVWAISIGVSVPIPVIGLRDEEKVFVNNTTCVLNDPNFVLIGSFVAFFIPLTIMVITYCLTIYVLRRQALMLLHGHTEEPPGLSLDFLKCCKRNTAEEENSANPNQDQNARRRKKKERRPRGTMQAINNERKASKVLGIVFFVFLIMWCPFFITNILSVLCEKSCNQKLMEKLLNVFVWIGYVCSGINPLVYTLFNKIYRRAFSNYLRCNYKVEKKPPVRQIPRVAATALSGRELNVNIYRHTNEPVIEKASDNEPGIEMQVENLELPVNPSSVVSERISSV
Procedure: During the incubation, the radioligands bind to the receptor. When equilibrium of binding is reached, the receptor bound radioactivity is separated from the non-bound radioactivity, and the receptor bound activity is counted. The interaction of the test compounds with the receptors is assessed in competition binding experiments. Various concentrations of the test compound are added to the incubation mixture containing the tissue preparation and the radioligand. Binding of the radioligand will be inhibited by the test compound in proportion to its binding affinity and its concentration.

Structure (SMILES)	IC50 [nM]
CN(C/C=C/c1ccccc1)C[C@H]1CC2=C(O1)c1cc(F)ccc1Cc1ccccc12 [Compound 110]	5.01

same assay, conditions: h-5HT2C, human cloned 5-HT2C receptor, radioligand binding

Structure (SMILES)	IC50 [nM]
O=C(Oc1ccccc1)N1CCN(CC2CC3=C(O2)c2cc(F)ccc2Cc2ccccc23)CC1 (stereo not drawn) [Compound 65]	126
O=C(Oc1ccccc1)N1CCN(CC2CC3=C(O2)c2cc(F)ccc2Oc2ccccc23)CC1 (stereo not drawn) [Compound 66]	316
COc1ccc(OC(=O)N2CCN(CC3CC4=C(O3)c3cc(F)ccc3Cc3ccccc34)CC2)cc1 (stereo not drawn) [Compound 67]	50.1
COc1ccc(OC(=O)N2CCN(CC3CC4=C(O3)c3cc(F)ccc3Oc3ccccc34)CC2)cc1 (stereo not drawn) [Compound 68]	251

same assay, conditions: human cloned 5-HT2C receptor, radioligand binding; read-out: h-5HT2C (converted)

Structure (SMILES)	IC50 [nM]
O=S(=O)(c1ccccc1)N1CCN(CC2CC3=C(O2)c2cc(F)ccc2Cc2ccccc23)CC1 (stereo not drawn) [Compound 48]	200
Cc1ccc(S(=O)(=O)N2CCN(CC3CC4=C(O3)c3cc(F)ccc3Oc3ccccc34)CC2)cc1 (stereo not drawn) [Compound 50]	316
CC(C)OC(=O)N1CCN(CC2CC3=C(O2)c2cc(F)ccc2Cc2ccccc23)CC1 (stereo not drawn) [Compound 63]	501
O=C(OCc1ccccc1)N1CCN(CC2CC3=C(O2)c2cc(F)ccc2Cc2ccccc23)CC1 (stereo not drawn) [Compound 69]	1000
O=C(OCc1ccccc1)N1CCN(CC2CC3=C(O2)c2cc(F)ccc2Oc2ccccc23)CC1 (stereo not drawn) [Compound 70]	631
O=C(c1ccccc1)N1CCN(CC2CC3=C(O2)c2cc(F)ccc2Cc2ccccc23)CC1 (stereo not drawn) [Compound 71]	15.8
O=C(c1ccccc1)N1CCN(CC2CC3=C(O2)c2cc(F)ccc2Oc2ccccc23)CC1 (stereo not drawn) [Compound 72]	63.1
O=C(NCc1ccccc1)N1CCN(CC2CC3=C(O2)c2cc(F)ccc2Cc2ccccc23)CC1 (stereo not drawn) [Compound 87]	100
O=C(NCc1ccccc1)N1CCN(CC2CC3=C(O2)c2cc(F)ccc2Oc2ccccc23)CC1 (stereo not drawn) [Compound 88]	100
CCCn1c2c(c3ccccc31)C1=C(CC(CNC)O1)c1ccccc1S2 (stereo not drawn) [Compound 93]	10

biological target: T4, human Dopamine D2L receptor (Homo sapiens, UniProt P14416); test: In vitro binding affinity for human D2L receptor ([3H]Spiperone); conditions: h-D2L
T4 construct: expressed in transfected cells; host or cells: CHO cells
T4 sequence (P14416 whole entry): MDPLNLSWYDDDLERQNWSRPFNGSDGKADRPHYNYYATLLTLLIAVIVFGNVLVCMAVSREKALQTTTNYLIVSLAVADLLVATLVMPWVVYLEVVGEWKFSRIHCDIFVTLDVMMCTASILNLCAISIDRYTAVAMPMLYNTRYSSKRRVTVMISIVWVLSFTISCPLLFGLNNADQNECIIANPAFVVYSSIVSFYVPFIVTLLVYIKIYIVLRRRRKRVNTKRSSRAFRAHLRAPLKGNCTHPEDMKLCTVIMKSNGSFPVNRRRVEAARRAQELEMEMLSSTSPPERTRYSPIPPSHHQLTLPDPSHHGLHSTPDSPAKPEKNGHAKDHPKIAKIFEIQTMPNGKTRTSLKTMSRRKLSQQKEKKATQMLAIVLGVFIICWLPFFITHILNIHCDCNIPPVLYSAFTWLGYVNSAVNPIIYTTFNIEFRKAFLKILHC
Procedure: Frozen membranes of human Dopamine D2L receptor-transfected CHO cells were thawed, briefly homogenised using an Ultra-Turrax T25 homogeniser and diluted in Tris-HCl assay buffer containing NaCl, CaCl2, MgCl2, KCl (50, 120, 2, 1, and 5 mM respectively, adjusted to pH 7.7 with HCl) to an appropriate protein concentration optimised for specific and non-specific binding. Radioligand [^3H]Spiperone (NEN, specific activity ˜70 Ci/mmol) was diluted in assay buffer at a concentration of 2 nmol/L. Prepared radioligand (50 μl), along with 50 μl of either the 10% DMSO control, Butaclamol (10^−6 mol/l final concentration), or compound of interest, was then incubated (30 min, 37° C.) with 400 μl of the prepared membrane solution. Membrane-bound activity was filtered through a Packard Filtermate harvester onto GF/B Unifilterplates and washed with ice-cold Tris-HCl buffer (50 mM; pH 7.7; 6×0.5 ml). Filters were allowed to dry before adding scintillation fluid and counting in a Topcount scintillation counter. Percentage specific bound and competition binding curves were calculated using S-Plus software (Insightful).

Structure (SMILES)	IC50 [nM]
CN(C/C=C/c1ccccc1)C[C@H]1CC2=C(O1)c1cc(F)ccc1Cc1ccccc12 [Compound 110]	158

same assay, conditions: h-D2L, human D2L receptor-transfected CHO cell membranes, [3H]Spiperone

Structure (SMILES)	IC50 [nM]
O=C(Oc1ccccc1)N1CCN(CC2CC3=C(O2)c2cc(F)ccc2Cc2ccccc23)CC1 (stereo not drawn) [Compound 65]	1000
O=C(Oc1ccccc1)N1CCN(CC2CC3=C(O2)c2cc(F)ccc2Oc2ccccc23)CC1 (stereo not drawn) [Compound 66]	794
COc1ccc(OC(=O)N2CCN(CC3CC4=C(O3)c3cc(F)ccc3Cc3ccccc34)CC2)cc1 (stereo not drawn) [Compound 67]	398
COc1ccc(OC(=O)N2CCN(CC3CC4=C(O3)c3cc(F)ccc3Oc3ccccc34)CC2)cc1 (stereo not drawn) [Compound 68]	794

same assay, conditions: human D2L receptor-transfected CHO cell membranes, [3H]Spiperone; read-out: h-D2L (converted)

Structure (SMILES)	IC50 [nM]
O=S(=O)(c1ccccc1)N1CCN(CC2CC3=C(O2)c2cc(F)ccc2Cc2ccccc23)CC1 (stereo not drawn) [Compound 48]	3160
Cc1ccc(S(=O)(=O)N2CCN(CC3CC4=C(O3)c3cc(F)ccc3Oc3ccccc34)CC2)cc1 (stereo not drawn) [Compound 50]	2000
CC(C)OC(=O)N1CCN(CC2CC3=C(O2)c2cc(F)ccc2Cc2ccccc23)CC1 (stereo not drawn) [Compound 63]	3980
O=C(OCc1ccccc1)N1CCN(CC2CC3=C(O2)c2cc(F)ccc2Cc2ccccc23)CC1 (stereo not drawn) [Compound 69]	1260
O=C(OCc1ccccc1)N1CCN(CC2CC3=C(O2)c2cc(F)ccc2Oc2ccccc23)CC1 (stereo not drawn) [Compound 70]	251
O=C(c1ccccc1)N1CCN(CC2CC3=C(O2)c2cc(F)ccc2Cc2ccccc23)CC1 (stereo not drawn) [Compound 71]	126
O=C(c1ccccc1)N1CCN(CC2CC3=C(O2)c2cc(F)ccc2Oc2ccccc23)CC1 (stereo not drawn) [Compound 72]	398
O=C(NCc1ccccc1)N1CCN(CC2CC3=C(O2)c2cc(F)ccc2Cc2ccccc23)CC1 (stereo not drawn) [Compound 87]	794
O=C(NCc1ccccc1)N1CCN(CC2CC3=C(O2)c2cc(F)ccc2Oc2ccccc23)CC1 (stereo not drawn) [Compound 88]	1260
CCCn1c2c(c3ccccc31)C1=C(CC(CNC)O1)c1ccccc1S2 (stereo not drawn) [Compound 93]	398
